{
  "source": "paper PMC5218480",
  "about": "(PLoS ONE, 2017)",
  "test_system": "MV-4-11 cells",
  "experiment": "Gene expression microarray analysis (Affymetrix PrimeView) and GSEA",
  "format": "cell-based, human",
  "parameters": "RFU PODN (11730768_x_at) / Fold change /veh PODN (11730768_x_at) / RFU LINC00158 (11744669_a_at) / Fold change /veh LINC00158 (11744669_a_at) / RFU DUSP10 (11751237_a_at) / Fold change /veh DUSP10 (11751237_a_at) / RFU ID3 (11757404_x_at) / Fold change /veh ID3 (11757404_x_at) / RFU PLEKHG5 (11737974_s_at) / Fold change /veh PLEKHG5 (11737974_s_at) / RFU LRRC4B (11730491_at) / Fold change /veh LRRC4B (11730491_at) / RFU GIMAP4 (11747438_a_at) / Fold change /veh GIMAP4 (11747438_a_at) / RFU KRT8 (11758183_x_at) / Fold change /veh KRT8 (11758183_x_at) / RFU CNN1 (11734310_a_at) / Fold change /veh CNN1 (11734310_a_at) / RFU VPS37D (11726825_at) / Fold change /veh VPS37D (11726825_at) / RFU C10orf10 (11716522_x_at) / Fold change /veh C10orf10 (11716522_x_at) / RFU KIR2DL2 /// KIR2DL4 /// KIR2DL5A /// KIR2DL5B /// KIR2DS1 /// KIR2DS2 /// KIR2DS3 /// KIR2DS4 /// KIR3DL3 /// KIR3DL3 /// KIR3DS1 (11738374_at) / Fold change /veh KIR2DL2 /// KIR2DL4 /// KIR2DL5A /// KIR2DL5B /// KIR2DS1 /// KIR2DS2 /// KIR2DS3 /// KIR2DS4 /// KIR3DL3 /// KIR3DL3 /// KIR3DS1 (11738374_at) / RFU C1QL1 (11718748_at) / Fold change /veh C1QL1 (11718748_at) / RFU TMPRSS4 (11747572_a_at) / Fold change /veh TMPRSS4 (11747572_a_at) / RFU HAMP (11756126_x_at) / Fold change /veh HAMP (11756126_x_at) / RFU RNFT2 (11725882_a_at) / Fold change /veh RNFT2 (11725882_a_at) / RFU NR4A2 (11747474_a_at) / Fold change /veh NR4A2 (11747474_a_at) / RFU ABCC12 (11746883_a_at) / Fold change /veh ABCC12 (11746883_a_at) / RFU TMEM136 (11760407_x_at) / Fold change /veh TMEM136 (11760407_x_at) / RFU CLDN22 /// WWC2 (11732394_at) / Fold change /veh CLDN22 /// WWC2 (11732394_at) / RFU HLA-DPB1 (11760878_x_at) / Fold change /veh HLA-DPB1 (11760878_x_at) / RFU SPINT1 (11716480_a_at) / Fold change /veh SPINT1 (11716480_a_at) / RFU GAP43 (11754022_s_at) / Fold change /veh GAP43 (11754022_s_at) / RFU A4GNT (11735810_at) / Fold change /veh A4GNT (11735810_at) / RFU PRB3 (11715151_x_at) / Fold change /veh PRB3 (11715151_x_at) / RFU TUBB4B (11761932_at) / Fold change /veh TUBB4B (11761932_at) / RFU CAPN14 (11732068_a_at) / Fold change /veh CAPN14 (11732068_a_at) / RFU TMCC2 (11721928_a_at) / Fold change /veh TMCC2 (11721928_a_at) / RFU IRGQ (11745062_a_at) / Fold change /veh IRGQ (11745062_a_at) / RFU FAM174B (11720279_a_at) / Fold change /veh FAM174B (11720279_a_at) / RFU TMPRSS4 (11748680_a_at) / Fold change /veh TMPRSS4 (11748680_a_at) / RFU FAM212B (11763350_a_at) / Fold change /veh FAM212B (11763350_a_at) / RFU PLEKHG5 (11743358_a_at) / Fold change /veh PLEKHG5 (11743358_a_at) / RFU ZSCAN30 (11745921_a_at) / Fold change /veh ZSCAN30 (11745921_a_at) / RFU CMKLR1 (11741424_a_at) / Fold change /veh CMKLR1 (11741424_a_at) / RFU LOC101060620 /// MAPK8IP1 (11723275_at) / Fold change /veh LOC101060620 /// MAPK8IP1 (11723275_at) / RFU SPTSSB (11747773_x_at) / Fold change /veh SPTSSB (11747773_x_at) / RFU PRSS12 (11739890_at) / Fold change /veh PRSS12 (11739890_at) / RFU BIN1 (11741810_x_at) / Fold change /veh BIN1 (11741810_x_at) / RFU WNT11 (11732464_a_at) / Fold change /veh WNT11 (11732464_a_at) / RFU C10orf10 (11716521_a_at) / Fold change /veh C10orf10 (11716521_a_at) / RFU C5orf56 (11738089_at) / Fold change /veh C5orf56 (11738089_at) / RFU CYB561 (11721691_x_at) / Fold change /veh CYB561 (11721691_x_at) / RFU ANKRD19P (11752326_a_at) / Fold change /veh ANKRD19P (11752326_a_at) / RFU OR2T12 /// OR2T33 /// OR2T8 (11738714_s_at) / Fold change /veh OR2T12 /// OR2T33 /// OR2T8 (11738714_s_at) / RFU VCAN (11748164_a_at) / Fold change /veh VCAN (11748164_a_at) / RFU JSRP1 (11732532_at) / Fold change /veh JSRP1 (11732532_at) / RFU KRTAP10-11 (11738290_x_at) / Fold change /veh KRTAP10-11 (11738290_x_at) / RFU MYO3A (11730013_a_at) / Fold change /veh MYO3A (11730013_a_at) / RFU EBF3 (11725865_a_at) / Fold change /veh EBF3 (11725865_a_at) / RFU CAMK2N1 (11719241_x_at) / Fold change /veh CAMK2N1 (11719241_x_at) / RFU C5orf56 (11738088_a_at) / Fold change /veh C5orf56 (11738088_a_at) / RFU OLFML3 (11715873_a_at) / Fold change /veh OLFML3 (11715873_a_at) / RFU LOC100653217 /// NTM (11731650_a_at) / Fold change /veh LOC100653217 /// NTM (11731650_a_at) / RFU MAPK11 (11762145_a_at) / Fold change /veh MAPK11 (11762145_a_at) / RFU FIZ1 (11724087_x_at) / Fold change /veh FIZ1 (11724087_x_at) / RFU OASL (11726364_x_at) / Fold change /veh OASL (11726364_x_at) / RFU SOX15 (11748057_x_at) / Fold change /veh SOX15 (11748057_x_at) / RFU CD79A (11719716_a_at) / Fold change /veh CD79A (11719716_a_at) / RFU HIST1H1D (11736915_at) / Fold change /veh HIST1H1D (11736915_at) / RFU CASKIN2 (11723855_a_at) / Fold change /veh CASKIN2 (11723855_a_at) / RFU LOC730098 (11760151_x_at) / Fold change /veh LOC730098 (11760151_x_at) / RFU OR4N2 (11742367_at) / Fold change /veh OR4N2 (11742367_at) / RFU PRRT2 (11749266_a_at) / Fold change /veh PRRT2 (11749266_a_at) / RFU SNX32 (11753110_a_at) / Fold change /veh SNX32 (11753110_a_at) / RFU CDHR5 (11726645_a_at) / Fold change /veh CDHR5 (11726645_a_at) / RFU RCAN1 (11760418_a_at) / Fold change /veh RCAN1 (11760418_a_at) / RFU FAM167A (11723789_a_at) / Fold change /veh FAM167A (11723789_a_at) / RFU FAM26E (11764081_at) / Fold change /veh FAM26E (11764081_at) / RFU ISYNA1 (11749810_s_at) / Fold change /veh ISYNA1 (11749810_s_at) / RFU ACY1 (11761880_at) / Fold change /veh ACY1 (11761880_at) / RFU 11764098_at / Fold change /veh 11764098_at / RFU SAMD14 (11745864_x_at) / Fold change /veh SAMD14 (11745864_x_at) / RFU NPB (11741838_a_at) / Fold change /veh NPB (11741838_a_at) / RFU TMPRSS6 (11731388_a_at) / Fold change /veh TMPRSS6 (11731388_a_at) / RFU KRTAP10-2 (11738614_at) / Fold change /veh KRTAP10-2 (11738614_at) / RFU ARHGAP8 /// PRR5-ARHGAP8 (11727945_x_at) / Fold change /veh ARHGAP8 /// PRR5-ARHGAP8 (11727945_x_at) / RFU KRTAP5-7 /// NADSYN1 (11734609_at) / Fold change /veh KRTAP5-7 /// NADSYN1 (11734609_at) / RFU RASL12 (11751679_a_at) / Fold change /veh RASL12 (11751679_a_at) / RFU CDKN2B (11736163_a_at) / Fold change /veh CDKN2B (11736163_a_at) / RFU PRF1 (11729649_at) / Fold change /veh PRF1 (11729649_at) / RFU, ZNF638 /// ZNF638-IT1 / Fold change vs veh, ZNF638 /// ZNF638-IT1 / RFU, PANK3 / Fold change vs veh, PANK3 / RFU, SH3YL1 / Fold change vs veh, SH3YL1 / RFU, ZEB2 / Fold change vs veh, ZEB2 / RFU, NRIP1 / Fold change vs veh, NRIP1 / RFU, PTTG1IP / Fold change vs veh, PTTG1IP / RFU, CAPN2 / Fold change vs veh, CAPN2 / RFU, MED14 / Fold change vs veh, MED14 / RFU, SNORA58 / Fold change vs veh, SNORA58 / RFU, C1orf63 / Fold change vs veh, C1orf63 / RFU, LRRFIP1 / Fold change vs veh, LRRFIP1 / RFU, NDUFAF7 / Fold change vs veh, NDUFAF7 / RFU, SLC12A2 / Fold change vs veh, SLC12A2 / RFU, IBTK / Fold change vs veh, IBTK / RFU, ESF1 / Fold change vs veh, ESF1 / Fold change vs veh, TMEM50B / RFU, TAOK1 / Fold change vs veh, TAOK1 / RFU, ACBD3 / Fold change vs veh, ACBD3 / RFU, TMA16 / Fold change vs veh, TMA16 / RFU, RWDD3 / Fold change vs veh, RWDD3 / RFU, BCAT1 / Fold change vs veh, BCAT1 / RFU, EDEM3 / Fold change vs veh, EDEM3 / RFU, TMEM33 / Fold change vs veh, TMEM33 / RFU, WDR75 / Fold change vs veh, WDR75 / RFU, AHCTF1 / Fold change vs veh, AHCTF1 / RFU, TFRC / Fold change vs veh, TFRC / RFU, ZDHHC17 / Fold change vs veh, ZDHHC17 / RFU, NOM1 / Fold change vs veh, NOM1 / RFU, ARL8B / Fold change vs veh, ARL8B / RFU, ZBTB11 / Fold change vs veh, ZBTB11 / RFU, TAMM41 / Fold change vs veh, TAMM41 / RFU, KIAA1704 /// LOC100996395 / Fold change vs veh, KIAA1704 /// LOC100996395 / RFU, ING1 / Fold change vs veh, ING1 / RFU, TRMT61B / Fold change vs veh, TRMT61B / RFU, FUBP3 / Fold change vs veh, FUBP3 / RFU, TP53 / Fold change vs veh, TP53 / RFU, TNKS2 / Fold change vs veh, TNKS2 / RFU, ZFP14 / Fold change vs veh, ZFP14 / RFU, ACTR2 / Fold change vs veh, ACTR2 / RFU, PPP3R1 / Fold change vs veh, PPP3R1 / RFU, PIK3R1 / Fold change vs veh, PIK3R1 / RFU, HNRNPA1 / Fold change vs veh, HNRNPA1 / RFU, RNF170 / Fold change vs veh, RNF170 / RFU, ZNF28 / Fold change vs veh, ZNF28 / RFU, RNGTT / Fold change vs veh, RNGTT / RFU, OGT / Fold change vs veh, OGT / RFU, BRD1 / Fold change vs veh, BRD1 / RFU, MARS / Fold change vs veh, MARS / RFU, ZNF655 / Fold change vs veh, ZNF655 / RFU, FAHD1 / Fold change vs veh, FAHD1 / RFU, BDP1 / Fold change vs veh, BDP1 / RFU, LRRCC1 / Fold change vs veh, LRRCC1 / RFU, ARID1A / Fold change vs veh, ARID1A / RFU, ZNF146 / Fold change vs veh, ZNF146 / RFU, ZNF330 / Fold change vs veh, ZNF330 / RFU, GPN3 / Fold change vs veh, GPN3 / RFU, C9orf123 / Fold change vs veh, C9orf123 / RFU, N4BP2L2 / Fold change vs veh, N4BP2L2 / RFU, ARFIP1 / Fold change vs veh, ARFIP1 / RFU, FAM179B / Fold change vs veh, FAM179B / RFU, BCL10 / Fold change vs veh, BCL10 / RFU, UHRF1BP1L / Fold change vs veh, UHRF1BP1L / RFU, BET1 / Fold change vs veh, BET1 / RFU, CNOT2 / Fold change vs veh, CNOT2 / RFU, ZNF268 / Fold change vs veh, ZNF268 / Fold change vs veh, ZNF507 / RFU, DGCR2 / Fold change vs veh, DGCR2 / RFU, WDSUB1 / Fold change vs veh, WDSUB1 / Fold change vs veh, HSP90B1 /// MIR3652 / RFU, ADSS / Fold change vs veh, ADSS / RFU, GK / Fold change vs veh, GK / RFU, ZNF148 / Fold change vs veh, ZNF148 / RFU, TAF9 / Fold change vs veh, TAF9 / RFU, SLC1A5 / Fold change vs veh, SLC1A5 / RFU, SLMO2 / Fold change vs veh, SLMO2 / RFU, ABCC4 / Fold change vs veh, ABCC4 / RFU, LOC101060439 /// RAP1B / Fold change vs veh, LOC101060439 /// RAP1B / RFU, RFX7 / Fold change vs veh, RFX7 / RFU, GTPBP10 / Fold change vs veh, GTPBP10 / RFU, CNEP1R1 / Fold change vs veh, CNEP1R1 / RFU, BIVM-ERCC5 /// ERCC5 / Fold change vs veh, BIVM-ERCC5 /// ERCC5 / RFU, ILF3 / Fold change vs veh, ILF3 / RFU 11762660_at / Fold change /veh 11762660_at / RFU VCAN (11757783_s_at) / Fold change /veh VCAN (11757783_s_at) / RFU DDX43 (11728927_at) / Fold change /veh DDX43 (11728927_at) / RFU KRT8 (11758188_x_at) / Fold change /veh KRT8 (11758188_x_at) / RFU NKD1 (11759106_at) / Fold change /veh NKD1 (11759106_at) / RFU SRD5A1 (11742802_a_at) / Fold change /veh SRD5A1 (11742802_a_at) / RFU TPSAB1 /// TPSB2 (11721975_s_at) / Fold change /veh TPSAB1 /// TPSB2 (11721975_s_at) / RFU GSTM3 (11746129_a_at) / Fold change /veh GSTM3 (11746129_a_at) / RFU IL23R (11737362_x_at) / Fold change /veh IL23R (11737362_x_at) / RFU TMEM51 (11727254_a_at) / Fold change /veh TMEM51 (11727254_a_at) / RFU PIWIL2 (11732686_x_at) / Fold change /veh PIWIL2 (11732686_x_at) / RFU ORM1 (11744905_x_at) / Fold change /veh ORM1 (11744905_x_at) / RFU CCDC152 (11743942_at) / Fold change /veh CCDC152 (11743942_at) / RFU ECM1 (11717891_a_at) / Fold change /veh ECM1 (11717891_a_at) / RFU IL23R (11748794_a_at) / Fold change /veh IL23R (11748794_a_at) / RFU TNFAIP8L3 (11732012_x_at) / Fold change /veh TNFAIP8L3 (11732012_x_at) / RFU MBOAT4 (11741988_at) / Fold change /veh MBOAT4 (11741988_at) / RFU 11764193_at / Fold change /veh 11764193_at / RFU TMEM53 (11763286_at) / Fold change /veh TMEM53 (11763286_at) / RFU MAGEB2 (11727129_at) / Fold change /veh MAGEB2 (11727129_at) / RFU TMEM200A (11744735_a_at) / Fold change /veh TMEM200A (11744735_a_at) / RFU CCDC152 (11751479_a_at) / Fold change /veh CCDC152 (11751479_a_at) / RFU FAM211A (11726209_a_at) / Fold change /veh FAM211A (11726209_a_at) / RFU RGS16 (11746705_a_at) / Fold change /veh RGS16 (11746705_a_at) / RFU VCAN (11755009_s_at) / Fold change /veh VCAN (11755009_s_at) / RFU RHOB (11743442_s_at) / Fold change /veh RHOB (11743442_s_at) / RFU RGS16 (11720943_a_at) / Fold change /veh RGS16 (11720943_a_at) / RFU RGS16 (11720944_at) / Fold change /veh RGS16 (11720944_at) / RFU, VPS4B / Fold change vs veh, VPS4B / RFU, CREB1 / Fold change vs veh, CREB1 / RFU, DNAJC13 / Fold change vs veh, DNAJC13 / RFU, GNAQ / Fold change vs veh, GNAQ / RFU, CDK5R1 / Fold change vs veh, CDK5R1 / RFU, ZRANB3 / Fold change vs veh, ZRANB3 / RFU, CUL4A / Fold change vs veh, CUL4A / RFU, CCNY / Fold change vs veh, CCNY / RFU, UFL1 / Fold change vs veh, UFL1 / RFU, COG3 / Fold change vs veh, COG3 / RFU, DIAPH2 / Fold change vs veh, DIAPH2 / RFU, SKA2 / Fold change vs veh, SKA2 / RFU, AFF3 / Fold change vs veh, AFF3 / RFU, LMF1 / Fold change vs veh, LMF1 / RFU, IPO11 / Fold change vs veh, IPO11 / RFU, DFFB / Fold change vs veh, DFFB / RFU, FOXP1 / Fold change vs veh, FOXP1 / RFU, CARD8 / Fold change vs veh, CARD8 / RFU, STRN3 / Fold change vs veh, STRN3 / RFU, ADK / Fold change vs veh, ADK / RFU, RASSF2 / Fold change vs veh, RASSF2 / RFU, WIPF1 / Fold change vs veh, WIPF1 / RFU, LARP1B / Fold change vs veh, LARP1B / RFU, RASA1 / Fold change vs veh, RASA1 / RFU, RB1 / Fold change vs veh, RB1 / RFU, PPFIA1 / Fold change vs veh, PPFIA1 / RFU, MAT2A / Fold change vs veh, MAT2A / RFU, CCT5 / Fold change vs veh, CCT5 / RFU, WDR92 / Fold change vs veh, WDR92 / RFU, CUX1 / Fold change vs veh, CUX1 / RFU, TTC7A / Fold change vs veh, TTC7A / RFU, TMEM135 / Fold change vs veh, TMEM135 / RFU, DEPTOR / Fold change vs veh, DEPTOR / RFU, CPM / Fold change vs veh, CPM / RFU, DNAJB6 / Fold change vs veh, DNAJB6 / RFU, CACNA2D3 / Fold change vs veh, CACNA2D3 / RFU, DTX4 / Fold change vs veh, DTX4 / RFU, TFCP2 / Fold change vs veh, TFCP2 / RFU, GMCL1 /// GMCL1P1 / Fold change vs veh, GMCL1 /// GMCL1P1 / RFU, AEBP2 / Fold change vs veh, AEBP2 / RFU, SNHG1 /// SNORD22 /// SNORD25 /// SNORD26 /// SNORD27 /// SNORD28 /// SNORD29 /// SNORD31 / Fold change vs veh, SNHG1 /// SNORD22 /// SNORD25 /// SNORD26 /// SNORD27 /// SNORD28 /// SNORD29 /// SNORD31 / Fold change (Aza/veh), C12orf56 (ProbeSet 11735607_a_at) / Fold change (ACY-1035/veh), C12orf56 (ProbeSet 11735607_a_at) / Fold change (Aza/veh), FGFR1OP (ProbeSet 11751329_s_at) / Fold change (ACY-1035/veh), FGFR1OP (ProbeSet 11751329_s_at) / Fold change (Aza/veh), VPS36 (ProbeSet 11739960_a_at) / Fold change (ACY-1035/veh), VPS36 (ProbeSet 11739960_a_at) / RFU SYPL1 (11715823_x_at) / Fold change /veh SYPL1 (11715823_x_at) / RFU IGFBP7 (11715501_s_at) / Fold change /veh IGFBP7 (11715501_s_at) / RFU REEP3 (11722064_at) / Fold change /veh REEP3 (11722064_at) / RFU IGLL1 (11728026_x_at) / Fold change /veh IGLL1 (11728026_x_at): dose or concentration left out as unconfirmed",
  "conditions": "ProbeSet 11743286_at; LIST D",
  "data": [
    {"smiles": "Nc1ncn([C@@H]2O[C@H](CO)[C@@H](O)[C@H]2O)c(=O)n1", "note": "[azacitidine]", "values": [
      {"measurement": "RFU, DTX4", "value": 164.39, "unit": "RFU"}
    ]}
  ]
}
